{"source": "ChEMBL document CHEMBL3885881", "about": "“DrugMatrix”", "key": {"[1]": {"species_on_record": "Rattus norvegicus", "format": "toxicity, organism-based, Sprague-Dawley", "details": "in vivo, po, 2 mg/kg, 24 h, route oral GAVAGE, dose level High, time 1 day, vehicle 100 % WATER", "description": "DrugMatrix - Regimen: Single"}, "[2]": {"species_on_record": "Rattus norvegicus", "experiment": "DrugMatrix - Regimen: Daily Repeat", "format": "toxicity, organism-based, Sprague-Dawley", "parameters": "regimen Daily Repeat, gender Male, age 6-8 weeks", "details": "in vivo, po, 2 mg/kg, 72 h, route oral GAVAGE, dose level High, time 3 day, vehicle 100 % WATER"}}, "data": [{"compound": "O=[Se]([O-])[O-].[Na+].[Na+]", "note": "[SODIUM SELENITE]", "values": [{"measurement": "ABSOLUTE EOSINOPHIL", "setting": "[1]; tissue Blood", "value": 75.33, "unit": "CELLS/uL"}, {"measurement": "ABSOLUTE LYMPHOCYTE", "setting": "[1]; tissue Blood", "value": 14511, "unit": "CELLS/uL"}, {"measurement": "ABSOLUTE MONOCYTE", "setting": "[1]; tissue Blood", "value": 680, "unit": "CELLS/uL"}, {"measurement": "ABSOLUTE SEGMENTED NEUTROPHIL", "setting": "[1]; tissue Blood", "value": 1733.67, "unit": "CELLS/uL"}, {"measurement": "BASOPHIL", "setting": "[1]; tissue Blood", "value": 0, "unit": "%"}, {"measurement": "EOSINOPHIL", "setting": "[1]; tissue Blood", "value": 0.67, "unit": "%"}, {"measurement": "ERYTHROCYTE COUNT", "setting": "[1]; tissue Blood", "value": 5.44, "unit": "x10E6/uL"}, {"measurement": "HEMATOCRIT", "setting": "[1]; tissue Blood", "value": 34.57, "unit": "%"}, {"measurement": "HEMOGLOBIN", "setting": "[1]; tissue Blood", "value": 12.77, "unit": "G/DL"}, {"measurement": "LEUKOCYTE COUNT", "setting": "[1]; tissue Blood", "value": 17, "unit": "x10E3/uL"}, {"measurement": "LYMPHOCYTE", "setting": "[1]; tissue Blood", "value": 85, "unit": "%"}, {"measurement": "MEAN CORPUSCULAR HEMOGLOBIN", "setting": "[1]; tissue Blood", "value": 23.53, "unit": "pg"}, {"measurement": "MEAN CORPUSCULAR HEMOGLOBIN CONCENTRATION", "setting": "[1]; tissue Blood", "value": 36.97, "unit": "G/DL"}, {"measurement": "MEAN CORPUSCULAR VOLUME", "setting": "[1]; tissue Blood", "value": 63.6, "unit": "fL"}, {"measurement": "MONOCYTE", "setting": "[1]; tissue Blood", "value": 4, "unit": "%"}, {"measurement": "NEUTROPHIL", "setting": "[1]; tissue Blood", "value": 10.33, "unit": "%"}, {"measurement": "NUCLEATED RED BLOOD CELLS", "setting": "[1]; tissue Blood", "value": "0 /100WBC"}, {"measurement": "PLATELET COUNT", "setting": "[1]; tissue Blood", "value": 978.67, "unit": "x10E3/uL"}, {"measurement": "ALANINE AMINOTRANSFERASE", "setting": "[1]; tissue Plasma", "value": 57.67, "unit": "u/L"}, {"measurement": "ALBUMIN", "setting": "[1]; tissue Plasma", "value": 4.3, "unit": "G/DL"}, {"measurement": "ALKALINE PHOSPHATASE", "setting": "[1]; tissue Plasma", "value": 357.67, "unit": "u/L"}, {"measurement": "ASPARTATE AMINOTRANSFERASE", "setting": "[1]; tissue Plasma", "value": 80.67, "unit": "u/L"}, {"measurement": "BLOOD UREA NITROGEN", "setting": "[1]; tissue Plasma", "value": 12.33, "unit": "mg/dL"}, {"measurement": "CARBON DIOXIDE", "setting": "[1]; tissue Plasma", "value": 27.67, "unit": "mmol/L"}, {"measurement": "CHLORIDE", "setting": "[1]; tissue Plasma", "value": 103, "unit": "MEQ/L"}, {"measurement": "CHOLESTEROL", "setting": "[1]; tissue Plasma", "value": 82.67, "unit": "mg/dL"}, {"measurement": "CREATININE", "setting": "[1]; tissue Plasma", "value": 0.15, "unit": "mg/dL"}, {"measurement": "GLUCOSE", "setting": "[1]; tissue Plasma", "value": 177, "unit": "mg/dL"}, {"measurement": "LACTATE DEHYDROGENASE", "setting": "[1]; tissue Plasma", "value": 119, "unit": "u/L"}, {"measurement": "LIPASE", "setting": "[1]; tissue Plasma", "value": 7.67, "unit": "u/L"}, {"measurement": "PHOSPHORUS", "setting": "[1]; tissue Plasma", "value": 13.23, "unit": "mg/dL"}, {"measurement": "POTASSIUM", "setting": "[1]; tissue Plasma", "value": 6.75, "unit": "MEQ/L"}, {"measurement": "SODIUM", "setting": "[1]; tissue Plasma", "value": 146.8, "unit": "MEQ/L"}, {"measurement": "TOTAL BILIRUBIN", "setting": "[1]; tissue Plasma", "value": 0.2, "unit": "mg/dL"}, {"measurement": "TOTAL PROTEIN", "setting": "[1]; tissue Plasma", "value": 5.73, "unit": "G/DL"}, {"measurement": "URIC ACID", "setting": "[1]; tissue Plasma", "value": 2.07, "unit": "mg/dL"}, {"measurement": "ABSOLUTE BASOPHIL", "setting": "[2]; tissue Blood", "value": 0, "unit": "CELLS/uL"}, {"measurement": "ABSOLUTE EOSINOPHIL", "setting": "[2]; tissue Blood", "value": 0, "unit": "CELLS/uL"}, {"measurement": "ABSOLUTE LYMPHOCYTE", "setting": "[2]; tissue Blood", "value": 12300.67, "unit": "CELLS/uL"}, {"measurement": "ABSOLUTE MONOCYTE", "setting": "[2]; tissue Blood", "value": 763.67, "unit": "CELLS/uL"}, {"measurement": "ABSOLUTE SEGMENTED NEUTROPHIL", "setting": "[2]; tissue Blood", "value": 2435.67, "unit": "CELLS/uL"}, {"measurement": "BASOPHIL", "setting": "[2]; tissue Blood", "value": 0, "unit": "%"}, {"measurement": "EOSINOPHIL", "setting": "[2]; tissue Blood", "value": 0, "unit": "%"}, {"measurement": "ERYTHROCYTE COUNT", "setting": "[2]; tissue Blood", "value": 6.2, "unit": "x10E6/uL"}, {"measurement": "HEMATOCRIT", "setting": "[2]; tissue Blood", "value": 38.47, "unit": "%"}, {"measurement": "HEMOGLOBIN", "setting": "[2]; tissue Blood", "value": 14.1, "unit": "G/DL"}, {"measurement": "LEUKOCYTE COUNT", "setting": "[2]; tissue Blood", "value": 15.5, "unit": "x10E3/uL"}, {"measurement": "LYMPHOCYTE", "setting": "[2]; tissue Blood", "value": 80, "unit": "%"}, {"measurement": "MEAN CORPUSCULAR HEMOGLOBIN", "setting": "[2]; tissue Blood", "value": 22.77, "unit": "pg"}, {"measurement": "MEAN CORPUSCULAR HEMOGLOBIN CONCENTRATION", "setting": "[2]; tissue Blood", "value": 36.7, "unit": "G/DL"}, {"measurement": "MEAN CORPUSCULAR VOLUME", "setting": "[2]; tissue Blood", "value": 62.07, "unit": "fL"}, {"measurement": "MONOCYTE", "setting": "[2]; tissue Blood", "value": 5, "unit": "%"}, {"measurement": "NEUTROPHIL", "setting": "[2]; tissue Blood", "value": 15, "unit": "%"}, {"measurement": "NUCLEATED RED BLOOD CELLS", "setting": "[2]; tissue Blood", "value": "0 /100WBC"}, {"measurement": "PLATELET COUNT", "setting": "[2]; tissue Blood", "value": 701.33, "unit": "x10E3/uL"}, {"measurement": "ALANINE AMINOTRANSFERASE", "setting": "[2]; tissue Plasma", "value": 84.33, "unit": "u/L"}, {"measurement": "ALBUMIN", "setting": "[2]; tissue Plasma", "value": 4.57, "unit": "G/DL"}, {"measurement": "ALKALINE PHOSPHATASE", "setting": "[2]; tissue Plasma", "value": 506.33, "unit": "u/L"}, {"measurement": "ASPARTATE AMINOTRANSFERASE", "setting": "[2]; tissue Plasma", "value": 143.67, "unit": "u/L"}, {"measurement": "BLOOD UREA NITROGEN", "setting": "[2]; tissue Plasma", "value": 15.67, "unit": "mg/dL"}, {"measurement": "CARBON DIOXIDE", "setting": "[2]; tissue Plasma", "value": 24, "unit": "mmol/L"}, {"measurement": "CHLORIDE", "setting": "[2]; tissue Plasma", "value": 102.33, "unit": "MEQ/L"}, {"measurement": "CHOLESTEROL", "setting": "[2]; tissue Plasma", "value": 121.33, "unit": "mg/dL"}, {"measurement": "CREATININE", "setting": "[2]; tissue Plasma", "value": 0.18, "unit": "mg/dL"}, {"measurement": "GLUCOSE", "setting": "[2]; tissue Plasma", "value": 145.67, "unit": "mg/dL"}, {"measurement": "LACTATE DEHYDROGENASE", "setting": "[2]; tissue Plasma", "value": 321.67, "unit": "u/L"}, {"measurement": "LIPASE", "setting": "[2]; tissue Plasma", "value": 9, "unit": "u/L"}, {"measurement": "PHOSPHORUS", "setting": "[2]; tissue Plasma", "value": 12.8, "unit": "mg/dL"}, {"measurement": "POTASSIUM", "setting": "[2]; tissue Plasma", "value": 5.73, "unit": "MEQ/L"}, {"measurement": "SODIUM", "setting": "[2]; tissue Plasma", "value": 146, "unit": "MEQ/L"}, {"measurement": "TOTAL BILIRUBIN", "setting": "[2]; tissue Plasma", "value": 0.23, "unit": "mg/dL"}, {"measurement": "TOTAL PROTEIN", "setting": "[2]; tissue Plasma", "value": 6.53, "unit": "G/DL"}, {"measurement": "URIC ACID", "setting": "[2]; tissue Plasma", "value": 1.43, "unit": "mg/dL"}]}]}
